PubChem BioAssay (NCI)
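Results reflect a 48-hour exposure of cells in 96-well plates to compound at five concentrations. TGI is the concentration that stops growth completely.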

Experiments:
Assay in all cases: DTP human tumour cell line panel, 48 h
[1] = test system: HT29 colon
[2] = test system: A498 renal
[3] = test system: MALME-3M melanoma
[4] = test system: SNB-75 CNS
[5] = test system: SK-MEL-2 melanoma
[6] = test system: SK-OV-3 ovarian
[7] = test system: UACC-257 melanoma
[8] = test system: MDA-MB-231 breast
[9] = test system: HCT-15 colon
[10] = test system: 786-0 renal

Row | SMILES | TGI [1] | TGI [2] | TGI [3] | TGI [4] | TGI [5] | TGI [6] | TGI [7] | TGI [8] | TGI [9] | TGI [10]
1 | NC1CNC(=O)c2c(Cl)sc(Cl)c21 (stereo not given) | > 100 µM | > 100 µM | > 100 µM | > 100 µM | > 100 µM | > 100 µM | > 100 µM | > 100 µM | > 100 µM | > 100 µM
2 | CCOn1c(C2(CC3CCN(C(=O)c4ccccc4)CC3)OCCO2)cc2ccccc21 | 34.2 µM | 26.1 µM | 33.2 µM | 34.6 µM | 32.2 µM | 45.3 µM | 23 µM | 30 µM | 42.3 µM | 30 µM
3 | CC(=O)OC/C=C(/C=C/CNC1CCCCC1)OC(C)=O | 35.5 µM | 33.9 µM | 32.9 µM | 93.6 µM | 43.8 µM | 33.8 µM | 29.4 µM | 27.9 µM | 37 µM | 23.9 µM
4 | O=[N+]([O-])c1ccc(NC(=S)N=Nc2c(O)[nH]c3ccc(Br)cc23)cc1 | 24.9 µM | 17.2 µM | 20.2 µM | 30.7 µM | 28.4 µM | 28.9 µM | 29.8 µM | 32 µM | 12.9 µM | 21.8 µM
5 | COc1c(C)c2nc3ccccc3[nH]c2c2c(=O)ccnc12 | > 100 µM | > 100 µM | > 100 µM | 35.1 µM | > 100 µM | > 100 µM | > 100 µM | > 100 µM | > 100 µM | > 100 µM
6 | CCOc1cc(-c2nc3ccccn3c2/N=C/c2cc(Br)ccc2O)ccc1O | > 100 µM | 90.5 µM | > 100 µM | 31.3 µM | > 100 µM | 92.7 µM | 53.5 µM | > 100 µM | > 100 µM | 60.4 µM
7 | N#Cc1cc2c(cc1Cl)Sc1nccn1S2(=O)=O | 3.91 µM | 33 µM | 22.2 µM | 20.4 µM | 12.8 µM | 18.1 µM | 5.81 µM | 12.4 µM | 3.28 µM | 28.8 µM
8 | CCOC(=O)C(CC#Cc1ccc(C#CCC(NC(C)=O)C(=O)OCC)cc1)NC(C)=O (stereo not given) | > 100 µM | > 100 µM | > 100 µM | > 100 µM | > 100 µM | > 100 µM | > 100 µM | > 100 µM | > 100 µM | > 100 µM
9 | O=C1CSC(c2cccs2)N1c1nc2cc3sc(N4C(=O)CSC4c4cccs4)nc3cc2s1 (stereo not given) | > 50 µM | > 50 µM | > 50 µM | > 50 µM | > 50 µM | > 50 µM | > 50 µM | > 50 µM | > 50 µM | > 50 µM
10 | NC(N)=NS(=O)(=O)c1ccc(NC(=O)c2ccc3nc4ccccc4c(Nc4ccc(S(=O)(=O)N=C(N)N)cc4)c3c2)cc1 | > 100 µM | > 100 µM | > 100 µM | > 100 µM | > 100 µM | > 100 µM | > 100 µM | > 100 µM | > 100 µM | > 100 µM
11 | O=C1C=C(c2ccccc2)O/C1=C/C(=O)c1ccc(Cl)cc1 | 36.5 µM | 75.4 µM | 36 µM | 23.6 µM | – | > 100 µM | 35.6 µM | 31.2 µM | 39.5 µM | 29.9 µM
12 | CN(C)CCn1c(=O)c2ccc(NCCCN(C)CCCNc3ccc4c(=O)n(CCN(C)C)c(=O)n5c6ccc([N+](=O)[O-])cc6c(=O)c3c45)c3c(=O)c4cc([N+](=O)[O-])ccc4n(c1=O)c23 | 0.726 µM | 0.398 µM | 0.781 µM | 0.195 µM | – | 0.886 µM | 2.13 µM | 0.125 µM | 0.542 µM | 0.385 µM
13 | CCNC(=O)C1CCCN1C(=O)C(CCCN=C(N)N)NC(=O)C(CC(C)C)NC(=O)C(Cc1c[nH]c2ccccc12)NC(=O)C(Cc1ccc(O)cc1)NC(=O)C(CO)NC(=O)C(Cc1c[nH]c2ccccc12)NC(=O)C(Cc1cnc[nH]1)NC(=O)C1CCC(=O)N1 (stereo not given) | > 100 µM | > 100 µM | > 100 µM | > 100 µM | > 100 µM | > 100 µM | > 100 µM | > 100 µM | > 100 µM | > 100 µM
14 | CCOC(=O)C(NC(=O)CC(C)C)(N1CCN(c2cc3c(cc2F)c(=O)c(C(=O)O)cn3C2CC2)CC1)C(F)(F)F (stereo not given) | 91.6 µM | 16.8 µM | 31.7 µM | 64.5 µM | 53.3 µM | 65.8 µM | 57 µM | 46.1 µM | 22.3 µM | > 100 µM
15 | Cc1cn([C@@H]2C[C@H]2CO)c(=O)[nH]c1=O | > 100 µM | > 100 µM | > 100 µM | > 100 µM | > 100 µM | – | > 100 µM | > 100 µM | > 100 µM | > 100 µM
16 | c1ccc(/C(=N/Nc2ccccn2)c2ncccn2)cc1 | > 47.4 µM | > 100 µM | 59.8 µM | 16.2 µM | > 100 µM | > 28.7 µM | – | > 100 µM | > 100 µM | > 100 µM
17 | COc1cc(I)c2c3c1OC1C34CCN(C)C(C2)C4=CC(I)C1(OC)OC (stereo not given) | 83.6 µM | 86.4 µM | 47.1 µM | 31.2 µM | 32.9 µM | 68 µM | 49.4 µM | 46.3 µM | 63.4 µM | 43.7 µM
18 | COC(=O)c1ccc(C=Nc2ccc(S(N)(=O)=O)cc2)cc1 | > 100 µM | > 100 µM | > 100 µM | > 100 µM | > 100 µM | > 100 µM | > 100 µM | > 100 µM | > 100 µM | > 100 µM
19 | O=c1c(-c2ccc(Cl)cc2)nnc2n(Cc3ccccc3)c3ccccc3n12 | > 100 µM | 69.5 µM | > 100 µM | 44.9 µM | > 100 µM | – | > 100 µM | 67.8 µM | > 100 µM | 42.8 µM
20 | CC(C)(C)c1cc(/C=C(\C#N)C(=O)NCCO)cc(C(C)(C)C)c1O | 51.7 µM | 48.4 µM | 61.9 µM | 72.4 µM | 37.4 µM | 60.2 µM | 35 µM | 43.9 µM | 58.6 µM | 48.3 µM
